Experimental data reported in patent US20240342196A1, “TARGETING SELECT LIPID SIGNALING TO COUNTER TYPE 1 DIABETES (T1D)” (The UAB Research Foundation, priority 2023, published 2024).

Experiments:
[1] = test system: human polymorphonuclear leukocyte (PMNL); details: read-out: EC50, reduction of human PMNL transendothelial migration; cited from earlier work
[2] = test system: mouse model of peritonitis; details: 10-100 ng dose; cited from earlier work
young rats = details: 10 mg/kg/day; cited from earlier work
HCA-7 colon cancer cells = details: 10 μM; cited from earlier work
[3] = test system: LPS-activated human macrophages; details: 100 nM; cited from earlier work
EP3 = biological target: T1, EP3 (Homo sapiens, UniProt P43115); details: cited from earlier work
T1 sequence (P43115 1-390): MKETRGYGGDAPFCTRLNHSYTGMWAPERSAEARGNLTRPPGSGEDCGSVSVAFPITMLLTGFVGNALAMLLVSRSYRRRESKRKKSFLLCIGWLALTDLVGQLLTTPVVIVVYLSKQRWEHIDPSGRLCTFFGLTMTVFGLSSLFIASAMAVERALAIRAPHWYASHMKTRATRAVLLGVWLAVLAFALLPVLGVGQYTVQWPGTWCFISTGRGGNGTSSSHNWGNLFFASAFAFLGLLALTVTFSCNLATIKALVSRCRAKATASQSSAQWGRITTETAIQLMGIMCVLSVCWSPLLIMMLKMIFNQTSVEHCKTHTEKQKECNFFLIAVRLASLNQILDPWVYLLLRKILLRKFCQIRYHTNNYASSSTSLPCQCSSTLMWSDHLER

EP1 = biological target: T2, EP1 (Homo sapiens, UniProt P34995); details: cited from earlier work
T2 sequence (P34995 1-402): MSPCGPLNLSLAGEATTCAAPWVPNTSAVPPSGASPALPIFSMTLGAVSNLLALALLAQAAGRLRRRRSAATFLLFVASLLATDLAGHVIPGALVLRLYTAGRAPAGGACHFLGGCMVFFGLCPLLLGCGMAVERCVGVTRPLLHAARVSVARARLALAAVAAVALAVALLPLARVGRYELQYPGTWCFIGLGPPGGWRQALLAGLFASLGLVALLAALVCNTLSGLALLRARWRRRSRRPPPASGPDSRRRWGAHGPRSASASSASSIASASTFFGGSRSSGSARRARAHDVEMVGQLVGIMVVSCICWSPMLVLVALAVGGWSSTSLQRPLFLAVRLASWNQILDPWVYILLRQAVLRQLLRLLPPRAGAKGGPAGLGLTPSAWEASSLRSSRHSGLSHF

RAW 264.7 cells = details: 10 μM; cited from earlier work
EP2 = EP2 (Homo sapiens, UniProt P43116); details: cited from earlier work
EP4 [4] = biological target: T3, EP4 (Homo sapiens, UniProt P35408); details: HEK293 cells expressing EP4; cited from earlier work
EP4 [5] = biological target: T3, EP4; details: CHO cells expressing EP4; 10 μM; cited from earlier work
NOD mice = test: T1D incidence in NOD mice; format: in vivo, mouse; details: 30-week monitoring period, vehicle only 75%
Description: To determine the impact of their signaling on T1D incidence, we treated NOD mice with either GP or EC alone starting at 4 weeks of age or in combination, where GP was started at 4 weeks of age and EC was introduced at 10 weeks of age. T1D incidence was recorded when blood glucose levels ≥[…] were measured in two consecutive weeks.

Th1 helper cells = test: IFN-γ production by Th1 helper cells in the NOD; format: cell-based, mouse
Description: Type 1 diabetes (T1D) is a consequence of autoimmune destruction of pancreatic islet β-cells, but the involved processes remain unclear. […] The iPLA2β hydrolyzes membrane phospholipids at the sn-2 substituent to release a fatty acid (i.e., arachidonic acid), that is metabolized to generate proinflammatory (pi) lipids. We find that global reduction of iPLA2β reduces T1D incidence. Given the importance of T-lymphocytes in T1D development, we investigated the contribution of iPLA2β-derived lipids (iDLs) from T-lymphocytes with adoptive transfer and ex vitro functional approaches. The CD4^+/8^+ T-cells were purified from pre-diabetic female NOD and NOD.iPLA2β^+/− (HET) spleens. Different combinations of the cells (NOD4+8, NOD4+HET8, and NOD8+HET4) were then administered (i.p. 7.5×10^6: 2.5×10^6) to 4-week-old female immunodeficient NOD.scid mice. We find that scid recipients of a combination that included HET4 or HET8 had higher plasma insulin, decreased insulitis, and increased β-cell mass, compared to recipients of NOD4+NOD8.

human NK cells = details: 0.01-10 μM, pretreatment 1 h, then 50 ng/ml IL-2, 0.33 μM PGE2, 18 hours; cited from earlier work
NK cells = details: cited from earlier work
EP4 [6] = biological target: T3, EP4; details: full antagonist; read-out: IC50 in the functional assay; cited from earlier work

T3 sequence (P35408 whole entry): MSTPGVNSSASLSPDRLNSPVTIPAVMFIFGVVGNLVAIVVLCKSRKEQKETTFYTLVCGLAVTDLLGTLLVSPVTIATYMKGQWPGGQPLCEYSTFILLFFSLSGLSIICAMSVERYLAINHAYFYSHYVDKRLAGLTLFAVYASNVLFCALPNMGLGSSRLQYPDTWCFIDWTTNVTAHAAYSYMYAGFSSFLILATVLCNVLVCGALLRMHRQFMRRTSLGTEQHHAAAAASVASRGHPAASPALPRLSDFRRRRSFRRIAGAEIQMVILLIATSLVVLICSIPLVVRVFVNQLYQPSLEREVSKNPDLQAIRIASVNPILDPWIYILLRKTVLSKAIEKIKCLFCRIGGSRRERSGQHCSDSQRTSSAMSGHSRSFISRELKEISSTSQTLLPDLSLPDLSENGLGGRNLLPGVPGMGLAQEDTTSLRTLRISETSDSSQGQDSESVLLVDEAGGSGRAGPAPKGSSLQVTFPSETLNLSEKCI
Chain of EP2 (P43116 whole entry): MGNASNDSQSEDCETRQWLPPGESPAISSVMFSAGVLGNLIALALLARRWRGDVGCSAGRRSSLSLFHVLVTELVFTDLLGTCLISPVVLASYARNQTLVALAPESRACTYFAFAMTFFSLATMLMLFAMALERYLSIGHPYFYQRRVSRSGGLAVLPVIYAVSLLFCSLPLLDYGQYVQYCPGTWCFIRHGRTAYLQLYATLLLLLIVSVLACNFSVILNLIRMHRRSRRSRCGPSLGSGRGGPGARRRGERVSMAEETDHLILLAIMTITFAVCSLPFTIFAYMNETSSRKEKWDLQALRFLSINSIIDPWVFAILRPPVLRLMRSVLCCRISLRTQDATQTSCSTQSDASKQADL

Q: For `CC/C=C\C[C@H](O)/C=C/C=C\C=C\C=C\[C@@H](O)[C@@H](O)C/C=C\CCC(=O)O` [RvD1], which EC50 [1] is on record?
A: ~30 nM

Q: And the “maximal inhibition of leukocyte infiltration” value [2]?
A: ~35%

Q: What does the source list for `CCCCc1nn(-c2ccccc2C(F)(F)F)c(=O)n1Cc1ccc(-c2ccccc2S(=O)(=O)NC(=O)c2sccc2C)cc1` [L-161,982]?
A: PGE2-stimulated bone formation (young rats): suppresses; PGE2-induced cell proliferation (HCA-7 colon cancer cells): blocks; anti-inflammatory action of PGE2 [3]: reverses

Q: Which results are given for `C/C=C/c1nnn(Cc2ccc(C(F)(F)F)cc2)c1C(=O)N[C@@H](C)c1ccc(C(=O)O)cc1` [EP4 receptor antagonist 1]?
A: IC50 (EP3): > 10000 nM; IC50 (EP1): > 10000 nM; GM-CSF-induced expression of II1b, II4ra, II6, Arg1, Cox2, and II10 (RAW 264.7 cells): decreases; IC50 (EP2): > 10000 nM; PGE2-induced β-arrestin recruitment (EP4 [4]): inhibits; ERK phosphorylation induced by PGE2 (EP4 [5]): reverses

Q: Which results are given for `CCc1nc2c(C)nc(C)cc2n1-c1ccc(CCNC(=O)NS(=O)(=O)c2ccc(C)cc2)cc1` [grapiprant]?
A: T1D incidence (NOD mice): 50%; IFN-γ production by Th1 helper cells (Th1 helper cells): significantly reduced

Q: With `O=C(O)c1ccc(C2(NC(=O)c3cccc4ccn(Cc5ccc(C(F)(F)F)cc5)c34)CC2)cc1` [MF-766] as the molecule, how does the “PGE2-suppressed IFN-γ secretion” value (human NK cells) read?
A: reverses

Q: And the NK cell viability (NK cells)?
A: not affected

Q: What about the IC50 (EP4 [6]) of the same molecule?
A: 1.4 nM

Q: What does the source list for `CC[C@H](C)C(=O)N1CCC(NC(=O)Nc2ccc(OC(F)(F)F)c(F)c2)CC1` [EC5026]?
A: T1D incidence (NOD mice): without effect; IFN-γ production by Th1 helper cells (Th1 helper cells): significantly reduced

Q: For `CC/C=C\C[C@@H](O)/C=C/C=C\C=C\C=C\[C@@H](O)[C@@H](O)C/C=C\CCC(=O)O` [17 (R)-epimer of RvD1], which EC50 [1] is on record?
A: ~30 nM

Q: And the “maximal inhibition of leukocyte infiltration” value [2]?
A: ~35%
